Reference: patent publication US11352354B2, “Substituted penta-fused hexa-heterocyclic compounds, preparation method therefor, drug combination and use thereof” (Xiamen University, priority 2017, dated 2022)

Legend:
[1] = system: JeKo-1 cells; test: Tumor cell growth inhibition by MTS method, JeKo-1; assay type: cell-based; settings: 5 days of culture; for inhibition at 10 µM: read-out: cell growth inhibition rate of compounds at 10 μM
Procedure: III. Determination of IC50 Value of Compound for Inhibiting Tumor Cell Growth by MTS Method
1. Cell plating: cells in logarithmic growth phase were counted and inoculated in a 96-well plate (20000 cells per well).
2. Administrating agent to cell: 10 mM compound mother solution in DMSO was subjected to 3 fold-gradient dilution, to set 8 concentrations, which were then added to various wells, with three replicates for each concentration, and three blank wells (only culture medium) and three negative controls (containing 0.1% DMSO) on each plate.
3. […] The OD value at 490 nm was measured with microplate reader OD490. The cell growth inhibition rate was calculated by the following formula: Cell growth inhibition rate %=1−(ODexperimental group−ODblank group)/(ODnegative group−ODblank group)×100%
The semi-inhibitory concentration IC50 of the compound acting on cell growth was calculated using GradPad Prism 5 software according to the measured cell growth inhibition rate.
In the following table it lists the IC50 value or the inhibition rates of some compounds at 10 μM against JeKo-1 cells

[2] = system: MDA-MB-231 cells; test: Vacuolation of MDA-MB-231 cells caused by inhibition of compounds on PIKfyve (microscopy); assay type: cell-based; settings: MDA-MB-231 cells
Description: I. Determination of Vacuolation of MDA-MB-231 Cells Caused by Inhibition of Compounds on PIKfyve
When the activity of pikfyve kinase is inhibited, vacuoles will be produced in cytoplasm. By observing the number of vacuoles under a microscope, the ability of compounds to inhibit the activity of pikfyve kinase can be known.
1. Cell plating: cells in logarithmic growth phase were made into a single cell suspension, counted with a cell counter and diluted to a cell concentration of about 2×10^5/mL. Then, the cells were inoculated into a 12-well plate, and cultured in a 37° C., 5% CO2 incubator.
3. Vacuolation test: after 24 and 48 hours of culture, photos were taken under an […] to observe the degree of vacuolation.
(In the table, “+” represents the degree of vacuolation; more “+” indicates more obvious vacuolation; “−” represents no vacuolation)

SMILES | IC50 ([1]; Homo sapiens, JeKo-1, 120 h) [nM] | degree of vacuolation, 1 μM, 24 h [2] | degree of vacuolation, 1 μM, 48 h [2] | degree of vacuolation, 10 μM, 24 h [2] | degree of vacuolation, 10 μM, 48 h [2] | IC50 [1] [nM] | inhibition at 10 µM ([1]; Homo sapiens, JeKo-1, 120 h) [%]
Cc1ccc(C(=O)Nc2cccc(C(F)(F)F)c2)cc1Nc1cc(-c2cccnc2)nc2[nH]ccc12 [I-a-20] | 2540 | +++ | +++ | ++++ | ++++ |  | 
Cc1ccc(C(=O)Nc2ccc(CN3CCN(C)CC3)c(C(F)(F)F)c2)cc1Nc1cc(-c2ccncc2)nc2[nH]ccc12 [I-a-25] | 2130 | + | + | + | + |  | 
Cc1ccc(NC(=O)c2cccc(C(F)(F)F)c2)cc1Nc1cc(-c2cccnc2)nc2c1ccn2C [I-b-1] | 2770 | ++ | ++ | +++ | +++ |  | 
Cc1ccc(NC(=O)c2cccc(C(F)(F)F)c2)cc1Nc1cc(-c2ccncc2)nc2c1ccn2C [I-b-2] | 1600 | − | − | ++ | ++ |  | 
Cc1ccc(C(=O)Nc2cccc(C(F)(F)F)c2)cc1Nc1cc(-c2cccnc2)nc2c1ccn2C [I-b-3] |  | + | + | ++ | ++ | 2680 | 
Cc1ccc(C(=O)Nc2cccc(C(F)(F)F)c2)cc1Nc1cc(-c2cccnc2)nc2c1ccn2C [I-b-4] |  | − | − |  |  | 1330 | 
Cc1ccc(NC(=O)c2cccc(C(F)(F)F)c2)cc1Nc1cc(-c2ccncc2)c2cc[nH]c2n1 [I-c-11] | 6130 | ++ | ++ | ++ | ++ |  | 
Cc1ccc(NC(=O)c2cccc(C(F)(F)F)c2)cc1Nc1cc(-c2cccnc2)c2cc[nH]c2n1 [I-c-12] | 1100 | +++ | +++ | +++ | +++ |  | 
Cc1ccc(NC(=O)c2cccc(C(F)(F)F)c2)cc1Nc1nc(-c2cccnc2)nc2[nH]ccc12 [II-a-1] |  |  | + |  | + |  | 17.3
Cc1ccc(C(=O)Nc2cccc(C(F)(F)F)c2)cc1Nc1nc(-c2cccnc2)nc2[nH]ccc12 [II-a-2] |  | + | + | + | + |  | 43.4
Cc1ccc(C(=O)Nc2cccc(C(F)(F)F)c2)cc1Nc1nc(-c2ccncc2)nc2[nH]ccc12 [II-a-4] |  | − | − | + | + |  | 18.7
Cc1ccc(C(=O)Nc2cccc(C(F)(F)F)c2)cc1Nc1nc(-c2cccnc2)nc2c1ccn2C [II-b-2] | 2850 | + | + | + | + |  | 
Cc1ccc(C(=O)Nc2cccc(C(F)(F)F)c2)cc1Nc1nc(-c2cccnc2)nc2c1cnn2C [III-b-1] | 939 | + | ++ | + | ++ |  | 
Cc1ccc(C(=O)Nc2cccc(C(F)(F)F)c2)cc1Nc1nc(-c2cccc(Cl)c2)nc2c1cnn2C [III-b-3] | 4860 | − |  | − |  |  | 
Cc1ccc(NC(=O)c2cccc(C(F)(F)F)c2)cc1Nc1nc(-c2cccnc2)nc2c1cnn2C [III-b-10] | 1880 | − | + | − | + |  | 
Cn1ncc2c(NCc3cccnc3)nc(-c3cccc(NC(=O)Nc4cccc(C(F)(F)F)c4)c3)nc21 [III-b-14] | 6780 | + | + | + | + |  | 
Cc1ccc(C(=O)Nc2cccc(C(F)(F)F)c2)cc1Nc1nc(-c2cccnc2)c2cnn(C)c2n1 [III-c-1] | 2000 |  |  |  |  |  | 
COc1ccc(Br)cc1NC(=S)Nc1cccc(-c2nc(NCc3cccnc3)c3c(ccn3C)n2)c1 [V-b-30] |  | − | − | + | + |  | 
Nc1ccc(NC(=O)c2cccc(Nc3nc(-c4cccnc4)c4[nH]ccc4n3)c2)cc1 [V-c-3] |  | + | + | ++ | ++ |  | 
Cc1cc(NC(=O)c2ccccc2N)ccc1Nc1nc(-c2cccnc2)c2[nH]ccc2n1 [V-c-25] |  | − | − | − | − |  | 
Cc1cc(NS(=O)(=O)c2ccccc2)ccc1Nc1nc(-c2cccnc2)c2[nH]ccc2n1 [V-c-35] |  | − | − | + | + |  | 
Cc1ccc(NC(=O)c2cccc(C(F)(F)F)c2)cc1Nc1nc(-c2cccnc2)cn2ccnc12 [VI-a-1] | 7490 |  |  |  |  |  | 
Cc1ccc(NC(=O)c2cccc(C(F)(F)F)c2)cc1Nc1nc(-c2cccnc2)cn2ccnc12 [VI-a-5] |  | − | + | − | + |  | 
Cc1ccc(C(=O)Nc2ccc(CN3CCN(C)CC3)c(C(F)(F)F)c2)cc1Nc1nc(-c2ccncc2)cn2ccnc12 [VI-a-8] |  |  | − |  | − |  | 
Cc1ccc(NC(=O)c2cccc(C(F)(F)F)c2)cc1Nc1nc(-c2cccnc2)cn2c(Br)cnc12 [VI-b-1] |  |  |  |  |  |  | 17.5
Cc1ccc(C(=O)Nc2cccc(C(F)(F)F)c2)cc1Nc1nc(-c2cccnc2)cn2c(Br)cnc12 [VI-b-2] |  |  |  |  |  |  | 14.7
Cc1ccc(C(=O)Nc2cccc(OC(F)(F)F)c2)cc1Nc1nc(-c2cccnc2)cn2c(Br)cnc12 [VI-b-4] |  | − | − | + | + |  | 
Cc1ccc(C(=O)Nc2cccc(F)c2)cc1Nc1nc(-c2cccnc2)cn2c(Br)cnc12 [VI-b-5] |  |  |  |  |  |  | 16.9
Cc1ccc(NC(=O)c2ccc(CN3CCOCC3)c(C(F)(F)F)c2)cc1Nc1nc(-c2cccnc2)cn2c(Br)cnc12 [VI-b-6] |  | − | − | − | − |  | 
